A short description of assay [1]: Antiproliferative activity against human RS4:11 cells having FLT3-ITD mutation after 72 hrs by WST8 assay. Format: functional, cell-based. The note with it: RS4-11, 72 h. Background: Tetrazolium dyes change colour on reduction, which living cells bring about.
Assay [2] addresses T1, Receptor-type tyrosine-protein kinase FLT3 (Homo sapiens, UniProt P36888).
T1 sequence (P36888 whole entry): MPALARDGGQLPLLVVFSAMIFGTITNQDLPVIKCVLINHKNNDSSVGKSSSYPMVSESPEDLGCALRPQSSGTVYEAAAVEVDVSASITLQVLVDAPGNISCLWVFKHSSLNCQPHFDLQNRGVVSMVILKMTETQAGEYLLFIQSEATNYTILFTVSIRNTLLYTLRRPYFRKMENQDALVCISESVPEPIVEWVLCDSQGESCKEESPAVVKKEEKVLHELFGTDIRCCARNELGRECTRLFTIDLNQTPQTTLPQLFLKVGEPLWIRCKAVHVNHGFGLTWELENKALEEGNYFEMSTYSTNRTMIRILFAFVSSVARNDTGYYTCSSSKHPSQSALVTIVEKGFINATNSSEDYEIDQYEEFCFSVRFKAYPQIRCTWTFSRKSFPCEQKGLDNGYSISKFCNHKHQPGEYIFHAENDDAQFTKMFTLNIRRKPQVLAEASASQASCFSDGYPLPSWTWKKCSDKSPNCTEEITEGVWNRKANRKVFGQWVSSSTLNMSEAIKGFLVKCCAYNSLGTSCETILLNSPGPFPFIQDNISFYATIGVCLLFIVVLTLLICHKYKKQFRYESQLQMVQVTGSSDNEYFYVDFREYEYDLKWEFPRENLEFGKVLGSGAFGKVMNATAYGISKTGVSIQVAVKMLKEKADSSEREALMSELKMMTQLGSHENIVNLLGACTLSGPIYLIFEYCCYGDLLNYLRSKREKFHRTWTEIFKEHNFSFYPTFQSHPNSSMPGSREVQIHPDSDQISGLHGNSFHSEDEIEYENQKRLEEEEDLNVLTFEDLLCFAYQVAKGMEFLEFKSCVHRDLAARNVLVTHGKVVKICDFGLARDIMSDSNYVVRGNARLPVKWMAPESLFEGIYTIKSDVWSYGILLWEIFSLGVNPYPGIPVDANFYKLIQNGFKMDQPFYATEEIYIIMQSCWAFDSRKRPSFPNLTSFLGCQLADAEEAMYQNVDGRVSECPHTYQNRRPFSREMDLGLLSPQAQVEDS
The assay is described as follows: Inhibition of FLT3 by HTRF assay. In general terms: In TR-FRET formats the signal depends on donor and acceptor labels being close together.

Assay [3] has as its system MV4-11. The assay is described as follows: Antiproliferative activity against […] FLT3 expressing human MV411 cells after 72 hrs by WST8 assay. The note with it: MV4-11, 72 h. Format: functional, cell-based.
The target in assay [4] is Vascular endothelial growth factor receptor 2 (Homo sapiens, UniProt P35968). Briefly: Inhibition of VEGFR2 by HTRF assay.
Vascular endothelial growth factor receptor 2, sequence (P35968 whole entry): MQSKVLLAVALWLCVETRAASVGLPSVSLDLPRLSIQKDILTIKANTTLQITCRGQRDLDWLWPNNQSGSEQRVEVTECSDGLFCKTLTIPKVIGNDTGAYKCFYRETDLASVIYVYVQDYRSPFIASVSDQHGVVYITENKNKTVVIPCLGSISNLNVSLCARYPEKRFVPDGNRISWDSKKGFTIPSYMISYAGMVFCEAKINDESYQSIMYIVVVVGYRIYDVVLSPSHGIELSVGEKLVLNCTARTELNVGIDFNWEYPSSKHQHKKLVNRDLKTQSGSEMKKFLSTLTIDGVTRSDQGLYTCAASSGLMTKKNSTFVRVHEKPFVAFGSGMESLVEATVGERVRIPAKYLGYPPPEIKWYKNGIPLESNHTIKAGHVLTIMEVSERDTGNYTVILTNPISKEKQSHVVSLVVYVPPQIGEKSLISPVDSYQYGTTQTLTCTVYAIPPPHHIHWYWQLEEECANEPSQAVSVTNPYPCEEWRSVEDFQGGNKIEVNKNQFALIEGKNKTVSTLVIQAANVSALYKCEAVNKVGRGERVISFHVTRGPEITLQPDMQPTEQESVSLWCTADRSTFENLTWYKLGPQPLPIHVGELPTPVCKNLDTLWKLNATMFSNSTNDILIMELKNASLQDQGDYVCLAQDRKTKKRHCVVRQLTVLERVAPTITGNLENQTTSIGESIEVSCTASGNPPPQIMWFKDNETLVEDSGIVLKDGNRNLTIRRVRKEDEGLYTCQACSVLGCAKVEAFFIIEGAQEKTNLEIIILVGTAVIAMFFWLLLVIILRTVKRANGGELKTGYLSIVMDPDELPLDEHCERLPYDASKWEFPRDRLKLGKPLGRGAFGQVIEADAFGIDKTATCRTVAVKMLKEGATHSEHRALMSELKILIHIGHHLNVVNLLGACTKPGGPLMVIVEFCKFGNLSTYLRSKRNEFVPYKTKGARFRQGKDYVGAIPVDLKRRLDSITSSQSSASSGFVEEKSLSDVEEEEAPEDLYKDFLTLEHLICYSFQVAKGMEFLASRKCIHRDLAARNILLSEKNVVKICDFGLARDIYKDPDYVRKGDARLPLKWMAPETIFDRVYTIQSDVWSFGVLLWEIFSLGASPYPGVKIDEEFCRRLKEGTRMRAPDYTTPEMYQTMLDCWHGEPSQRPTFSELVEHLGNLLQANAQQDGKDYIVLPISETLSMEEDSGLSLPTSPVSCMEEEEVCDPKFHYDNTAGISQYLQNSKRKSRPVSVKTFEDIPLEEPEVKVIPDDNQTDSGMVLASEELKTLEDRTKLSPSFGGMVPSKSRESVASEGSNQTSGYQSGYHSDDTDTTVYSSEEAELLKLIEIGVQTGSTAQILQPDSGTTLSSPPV
Assay [5] has as its target Hepatocyte growth factor receptor (Homo sapiens, UniProt P08581). The assay is described as follows: Inhibition of Met by HTRF assay.
Assay [6] deals with Macrophage-stimulating protein receptor (Homo sapiens, UniProt Q04912). The assay is described as follows: Inhibition of Ron by HTRF assay.
Macrophage-stimulating protein receptor, sequence (Q04912 25-304 limits assumed): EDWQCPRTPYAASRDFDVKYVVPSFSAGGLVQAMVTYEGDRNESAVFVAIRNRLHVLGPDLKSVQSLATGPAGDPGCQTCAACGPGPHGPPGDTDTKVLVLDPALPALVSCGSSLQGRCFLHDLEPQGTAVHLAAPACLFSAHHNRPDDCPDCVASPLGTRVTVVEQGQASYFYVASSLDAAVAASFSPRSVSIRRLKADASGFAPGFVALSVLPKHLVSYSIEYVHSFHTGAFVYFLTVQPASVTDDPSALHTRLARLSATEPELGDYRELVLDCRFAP
Macrophage-stimulating protein receptor, sequence (Q04912 310-1400 limits assumed): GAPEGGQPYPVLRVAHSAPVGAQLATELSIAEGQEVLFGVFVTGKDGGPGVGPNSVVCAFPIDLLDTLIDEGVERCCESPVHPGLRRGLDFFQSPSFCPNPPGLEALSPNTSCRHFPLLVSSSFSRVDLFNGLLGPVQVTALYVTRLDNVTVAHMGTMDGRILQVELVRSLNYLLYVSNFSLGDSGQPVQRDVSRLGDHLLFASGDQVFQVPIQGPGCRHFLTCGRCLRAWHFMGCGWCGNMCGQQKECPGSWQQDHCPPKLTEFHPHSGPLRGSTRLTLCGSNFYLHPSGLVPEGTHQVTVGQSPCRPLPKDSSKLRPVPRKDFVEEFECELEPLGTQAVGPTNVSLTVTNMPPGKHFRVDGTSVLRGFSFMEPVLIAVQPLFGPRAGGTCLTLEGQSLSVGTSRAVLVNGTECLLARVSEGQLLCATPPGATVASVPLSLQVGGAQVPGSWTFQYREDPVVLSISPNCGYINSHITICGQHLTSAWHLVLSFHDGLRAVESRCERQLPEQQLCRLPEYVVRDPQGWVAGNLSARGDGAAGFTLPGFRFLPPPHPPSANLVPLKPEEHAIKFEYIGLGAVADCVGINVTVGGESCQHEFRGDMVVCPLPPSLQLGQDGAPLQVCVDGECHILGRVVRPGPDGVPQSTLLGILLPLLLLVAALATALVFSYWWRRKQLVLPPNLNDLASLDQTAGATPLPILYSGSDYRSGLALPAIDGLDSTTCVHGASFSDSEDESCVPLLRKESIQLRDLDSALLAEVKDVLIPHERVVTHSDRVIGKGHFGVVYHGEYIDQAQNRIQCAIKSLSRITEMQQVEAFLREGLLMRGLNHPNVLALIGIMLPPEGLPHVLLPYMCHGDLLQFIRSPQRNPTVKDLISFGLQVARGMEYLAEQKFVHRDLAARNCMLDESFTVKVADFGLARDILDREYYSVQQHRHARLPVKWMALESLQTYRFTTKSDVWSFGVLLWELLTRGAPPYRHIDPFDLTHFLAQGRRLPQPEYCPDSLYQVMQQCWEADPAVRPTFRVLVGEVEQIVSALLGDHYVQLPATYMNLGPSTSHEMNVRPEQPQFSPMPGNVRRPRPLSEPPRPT
Assay [7] has as its target Epidermal growth factor receptor (Homo sapiens, UniProt P00533). Briefly: Inhibition of EGFR by HTRF assay.
In a further assay the target is Insulin receptor (Homo sapiens, UniProt P06213). The assay is described as follows: Inhibition of insulin receptor by HTRF assay.
The target in a further assay is T2, Aurora kinase A (Homo sapiens, UniProt O14965).
T2 sequence (O14965 whole entry): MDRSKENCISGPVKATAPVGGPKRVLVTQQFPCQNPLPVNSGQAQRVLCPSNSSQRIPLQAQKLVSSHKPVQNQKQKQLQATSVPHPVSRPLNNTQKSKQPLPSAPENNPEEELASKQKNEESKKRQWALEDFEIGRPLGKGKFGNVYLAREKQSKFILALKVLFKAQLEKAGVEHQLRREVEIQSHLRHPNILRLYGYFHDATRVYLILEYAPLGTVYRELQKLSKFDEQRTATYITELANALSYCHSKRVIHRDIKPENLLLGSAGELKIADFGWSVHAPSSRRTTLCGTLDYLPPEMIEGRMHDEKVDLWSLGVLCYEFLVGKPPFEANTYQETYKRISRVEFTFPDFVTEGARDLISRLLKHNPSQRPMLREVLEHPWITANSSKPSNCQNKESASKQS
The assay is described as follows: Inhibition of Aurora A by HTRF assay.

The test system of assay [8] is MV4-11. Briefly: Cell cycle arrest in human MV411 cells assessed as accumulation at G0/G1 phase at 0.01 uM after 48 hrs by propidium iodide assay. Format: functional.
The subject of assay [9] is MV4-11. Briefly: Cell cycle arrest in human MV411 cells assessed as accumulation at G2/M phase at 0.01 uM after 48 hrs by propidium iodide assay. Format: functional.
The test system of assay [10] is MV4-11. Briefly: Cell cycle arrest in human MV411 cells assessed as accumulation at S phase at 0.01 uM after 48 hrs by propidium iodide assay. Format: functional.
The subject of assay [11] is MV4-11. Briefly: Cell cycle arrest in human MV411 cells assessed as accumulation at sub-G1 phase at 0.01 uM after 48 hrs by propidium iodide assay. Format: functional.
Assay [12] relates to MV4-11. Briefly: Cell cycle arrest in human MV411 cells assessed as accumulation at G0/G1 phase at 1 uM after 48 hrs by propidium iodide assay. Format: functional.
The subject of assay [13] is MV4-11. The assay is described as follows: Cell cycle arrest in human MV411 cells assessed as accumulation at G0/G1 phase at 0.1 uM after 48 hrs by propidium iodide assay. Format: functional.
Assay [14] deals with MV4-11. Briefly: Cell cycle arrest in human MV411 cells assessed as accumulation at G2/M phase at 0.1 uM after 48 hrs by propidium iodide assay. Format: functional.
In assay [15] the test system is MV4-11. The assay is described as follows: Cell cycle arrest in human MV411 cells assessed as accumulation at S phase at 0.1 uM after 48 hrs by propidium iodide assay. Format: functional.
For assay [16], the system named is MV4-11. Briefly: Cell cycle arrest in human MV411 cells assessed as accumulation at sub-G1 phase at 0.1 uM after 48 hrs by propidium iodide assay. Format: functional.
For assay [17], the system named is MV4-11. The assay is described as follows: Cell cycle arrest in human MV411 cells assessed as accumulation at G2/M phase at 1 uM after 48 hrs by propidium iodide assay. Format: functional.
Assay [18] relates to MV4-11. The assay is described as follows: Cell cycle arrest in human MV411 cells assessed as accumulation at S phase at 1 uM after 48 hrs by propidium iodide assay. Format: functional.
The test system of assay [19] is MV4-11. Briefly: Cell cycle arrest in human MV411 cells assessed as accumulation at sub-G1 phase at 1 uM after 48 hrs by propidium iodide assay. Format: functional.

Epidermal growth factor receptor, sequence (P00533 whole entry): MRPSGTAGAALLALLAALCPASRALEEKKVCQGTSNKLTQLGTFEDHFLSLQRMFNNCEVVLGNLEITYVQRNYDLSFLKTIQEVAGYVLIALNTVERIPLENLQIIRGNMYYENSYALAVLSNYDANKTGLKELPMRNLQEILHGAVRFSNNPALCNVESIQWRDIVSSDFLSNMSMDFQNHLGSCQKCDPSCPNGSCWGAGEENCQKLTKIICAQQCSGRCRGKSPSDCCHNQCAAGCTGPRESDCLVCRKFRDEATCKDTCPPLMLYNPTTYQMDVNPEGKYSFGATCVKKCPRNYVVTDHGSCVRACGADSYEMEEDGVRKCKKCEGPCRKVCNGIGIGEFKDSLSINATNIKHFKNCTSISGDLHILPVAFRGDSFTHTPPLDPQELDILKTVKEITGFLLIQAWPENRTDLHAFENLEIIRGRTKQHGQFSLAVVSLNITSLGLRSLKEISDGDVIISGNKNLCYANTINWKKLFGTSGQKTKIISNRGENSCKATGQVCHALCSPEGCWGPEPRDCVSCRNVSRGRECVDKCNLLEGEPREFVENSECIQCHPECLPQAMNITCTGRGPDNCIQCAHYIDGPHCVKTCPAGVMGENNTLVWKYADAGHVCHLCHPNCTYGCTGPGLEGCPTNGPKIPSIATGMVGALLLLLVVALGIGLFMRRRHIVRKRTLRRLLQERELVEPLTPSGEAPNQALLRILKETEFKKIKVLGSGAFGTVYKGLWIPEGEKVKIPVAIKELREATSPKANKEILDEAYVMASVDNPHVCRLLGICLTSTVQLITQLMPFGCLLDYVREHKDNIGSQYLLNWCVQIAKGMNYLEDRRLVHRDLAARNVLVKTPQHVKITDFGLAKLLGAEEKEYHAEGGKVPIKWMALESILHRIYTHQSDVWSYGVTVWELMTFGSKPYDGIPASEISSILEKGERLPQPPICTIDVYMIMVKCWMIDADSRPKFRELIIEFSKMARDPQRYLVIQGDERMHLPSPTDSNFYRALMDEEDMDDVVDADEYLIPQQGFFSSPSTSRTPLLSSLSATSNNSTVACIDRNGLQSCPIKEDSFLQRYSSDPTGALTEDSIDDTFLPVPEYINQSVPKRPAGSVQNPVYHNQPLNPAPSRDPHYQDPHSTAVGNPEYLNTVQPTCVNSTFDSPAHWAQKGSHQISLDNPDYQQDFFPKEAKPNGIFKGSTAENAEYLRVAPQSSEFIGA

For `O=C1Nc2ccc(S(=O)(=O)O)cc2/C1=C1/Nc2ccccc2/C1=N\O`, the figures for the IC50 (in assay [1]; in [2]; in the assay on MV4-11 [3]) were more than 10000 nM, 9 nM and more than 10000 nM, respectively.

With `O=C1C(c2c(O)[nH]c3ccc(S(=O)(=O)O)cc23)=Nc2ccccc21`, the 50% inhibitory concentration (IC50) (commonly the concentration needed to halve the response being measured) is more than 10000 nM in [1], 280 nM in [2] and more than 10000 nM in the assay with MV4-11 [3].

As for `O=C1C(c2c(O)[nH]c3ccc(I)cc23)=Nc2ccccc21`, the 50% inhibitory concentration (IC50) in assay [1] was more than 10000 nM; in assay [2] it was 4720 nM; in the assay with MV4-11 [3], 4790 nM.

As for `Nc1ccc2c(c1)/C(=C1/Nc3ccccc3C1=O)C(=O)N2`, the IC50 in [1] worked out at 4670 nM; in assay [2] it was 359 nM; in the assay on MV4-11 [3] it was 4300 nM.

For the compound `O=C1Nc2ccc(OC(F)(F)F)cc2/C1=C1/Nc2ccccc2/C1=N\O`, the concentration for half-maximal inhibition (IC50) was 3360 nM in assay [1], more than 10000 nM in assay [2] and more than 3550 nM with MV4-11 [3].

Turning to `Cc1cc(Cl)cc2c1NC(=O)/C2=C1\Nc2ccccc2\C1=N/O`, the IC50 (in assay [1]; in assay [2]; in the assay on MV4-11 [3]) was more than 10000 nM in each case.

For the compound `O=Nc1c(-c2c(O)[nH]c3ccccc23)[nH]c2ccccc12` [INDIRUBIN-3-MONOXIME], the 50% inhibitory concentration (IC50) in [1] stood at 3560 nM; in assay [2], 33 nM; in the assay on MV4-11 [3], 150 nM.

In the case of `O=C1C(c2c(O)[nH]c3ccc(Cl)cc23)=Nc2ccccc21`, the half-inhibitory concentration (IC50) was more than 10000 nM in assay [1], 212 nM in assay [2] and 7000 nM in the assay on MV4-11 [3].

`CC(=O)N1/C(=C2\C(=O)Nc3ccccc32)C(=O)c2ccccc21`: the IC50 (in [1]; in [2]; in the assay on MV4-11 [3]) was more than 10000 nM each time.

As to `Nc1ccn([C@@H]2O[C@H](CO)[C@@H](O)[C@@H]2O)c(=O)n1` [CYTARABINE], the values for the IC50 (in assay [1]; in the assay on MV4-11 [3]) were 260 nM and 3360 nM, respectively.

For the compound `Nc1ccc2c(c1)/C(=C1/Nc3ccccc3/C1=N\O)C(=O)N2`, the 50% inhibitory concentration (IC50) in [1] came to 3340 nM; in assay [2], 128 nM; in the assay with MV4-11 [3] it was 1650 nM.

In the case of `O=C1C(c2c(O)[nH]c3ccc(F)cc23)=Nc2ccccc21`, the IC50 in assay [1] is more than 10000 nM; in assay [2] it was 10100 nM; with MV4-11 [3], more than 10000 nM.

As for `Cc1cc(C)c2c(c1)/C(=C1/Nc3ccccc3/C1=N\O)C(=O)N2`, the IC50 in assay [1] is more than 10000 nM; in assay [2], 952 nM; in the assay with MV4-11 [3], 2400 nM.

For `Cc1ccc2[nH]c(O)c(C3=Nc4ccccc4C3=O)c2c1`, the values for the IC50 (in assay [1]; in assay [2]; in the assay with MV4-11 [3]) were more than 10000 nM, 209 nM and 1540 nM, respectively.

Turning to `O=Nc1c(-c2c(O)[nH]c3ccc([N+](=O)[O-])cc23)[nH]c2ccccc12`, the IC50 in [1] came to 560 nM; in [2], 62 nM; with MV4-11 [3] it was 450 nM.

For `O=C1Nc2ccc(F)cc2/C1=C1/Nc2ccccc2/C1=N\O`, the IC50 in [1] was 2210 nM; in assay [2] it was 15 nM; in assay [4] it was 1530 nM; in assay [5] it was more than 10000 nM; in [6], more than 10000 nM; in assay [7], more than 10000 nM. In addition, the IC50 at Insulin receptor is more than 10000 nM; against Aurora kinase A, 1270 nM; in the assay on MV4-11 [3] it was 72 nM. The Activity in the assay on MV4-11 [8] is listed as 61.62%; in the assay on MV4-11 [9], 11.53%; with MV4-11 [10] it was 16.55%; with MV4-11 [11], 9.24%; in the assay with MV4-11 [12] it was 58.06%; in the assay with MV4-11 [13] it was 57.44%. Also, the Activity in the assay on MV4-11 [14] was 2.91%; with MV4-11 [15], 6.42%; in the assay on MV4-11 [16] it was 32.76%; in the assay on MV4-11 [17], 1.05%; in the assay on MV4-11 [18] it was 2.85%; with MV4-11 [19], 37.73%.

For `C[C@]12O[C@H](C[C@]1(O)CO)n1c3ccccc3c3c4c(c5c6ccccc6n2c5c31)CNC4=O` [LESTAURTINIB], the IC50 in assay [1] was determined as 120 nM; in the assay with MV4-11 [3] it was 9 nM.

In the case of `Cc1ccc2c(c1)/C(=C1/Nc3ccccc3/C1=N\O)C(=O)N2`, the IC50 was 8560 nM in assay [1], 28 nM in assay [2] and 260 nM with MV4-11 [3].

On to `O=C1Nc2ccc([N+](=O)[O-])cc2/C1=C1/Nc2ccc(Br)cc2/C1=N/O`, for which the values for the IC50 (in assay [1]; in assay [2]; with MV4-11 [3]) were 160 nM, more than 10000 nM and more than 270 nM, respectively.

As for `O=C1C(c2c(O)[nH]c3ccc([N+](=O)[O-])cc23)=Nc2ccccc21`, the IC50 (in assay [1]; in assay [2]; with MV4-11 [3]) was more than 10000 nM each time.

With `O=C1Nc2ccccc2/C1=C1/Nc2ccccc2C1=O` [INDIRUBIN], the IC50 (in assay [1]; in assay [2]; in the assay on MV4-11 [3]) was more than 10000 nM in each case.

Take `O=Nc1c(-c2c(O)[nH]c3ccc(I)cc23)[nH]c2ccccc12`: the values for the half-inhibitory concentration (IC50) (in assay [1]; in assay [2]; with MV4-11 [3]) were 1450 nM, 418 nM and 360 nM, respectively.

In the case of `O=C1Nc2ccc(Cl)cc2/C1=C1/Nc2ccccc2/C1=N\O`, the values for the IC50 (in [1]; in assay [2]; in the assay on MV4-11 [3]) were 1580 nM, 82 nM and 220 nM, respectively.

(Values after ChEMBL document CHEMBL1155384 (Bioorg Med Chem Lett, 2010).)
